Results taken from patent US20240150293A1, “SPIROCYCLOHEXANE DERIVATIVES, PHARMACEUTICAL COMPOSITIONS CONTAINING THEM AND THEIR USES AS ANTI-APOPTOTIC INHIBITORS” (LES LABORATOIRES SERVIER, priority 2021, published 2024).
Like-named read-outs stand apart in the source and are kept apart here.

Tests used:
NCI-H929 cell lines = test: In vitro cytotoxicity, CellTiter-Glo (CTG) assay (Example B, Method B); type: cell-based; details: NCI-H929 cells, 48 h incubation, read-out: C50
Summary of the method: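 NCI-H929 cells exposed to an 11-point compound series from 10 mM DMSO stocks (top final 30 μM) for 48 h at 37° C., 5% CO2. Viability measured as ATP by CellTiter-Glo luminescence; C50 is the concentration giving 50% cellular viability.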

[1] = biological target: Cy5-labelled Mcl1 (amino acids 171-321) C286S protein (UniProtKB Q07820) (Homo sapiens (Human), UniProt Q07820, C286S); test: Inhibition of Mcl-1 by the fluorescence quenching assay (Example A, Method B); type: binding; details: for inhibition at 1 µM: read-out: Mcl-1 inhibition, % at a single concentration
Summary of the method: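 Cy5-labelled Mcl1 171-321 C286S (1 nM) quenched by TQ5WS-labelled PUMA peptide (10, 20 or 400 nM); displacement raises fluorescence (Ex 620/Em 680 nm). Buffer 10 mM HEPES, 150 mM NaCl, 0.05% Tween 20, pH 7.4, 5% DMSO; 2 h at room temperature, 11-point curves, IC50 converted to Ki (cKi/eKi).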

Chain of Cy5-labelled Mcl1 (amino acids 171-321) C286S protein (Q07820 171-321 C286S): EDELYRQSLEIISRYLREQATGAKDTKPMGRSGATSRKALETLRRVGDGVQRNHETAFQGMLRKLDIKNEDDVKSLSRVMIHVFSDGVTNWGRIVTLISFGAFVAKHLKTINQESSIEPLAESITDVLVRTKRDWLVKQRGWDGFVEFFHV

Row | Ki [1] | inhibition at 1 µM [1] | Structure (SMILES) | IC50 (NCI-H929 cell lines) | IC50 (NCI-H929 cell lines; Homo sapiens, NCI-H929, 48 h)
1 | 0.724 nM | – | CC1CCNc2nccc(OC[C@H](C)C[C@H]3Cc4ccccc4[C@]34CC[C@@](Nc3cccc(Cl)c3)(C(=O)O)CC4)c21 (single isomer, unassigned) [Example 642] | 460 nM | –
2 | 0.764 nM | – | C[C@@H](COc1ccnc2c1[C@H](C)CCC2)C[C@@H]1Cc2ccc(OCC3CC3)cc2[C@]12CC[C@@](Nc1cccc(Cl)c1)(C(=O)O)CC2 [Example 790, (1r,2′R,4R)-4-(3-chloroanilino)-6′-(cyclopropylmethoxy)-2′-[(2R)-2-methyl-3-{[(5R)-5-methyl-5,6,7,8-tetrahydroquinolin-4-yl]oxy}propyl]-2′,3′-dihydrospiro[cyclohexane-1,1′-indene]-4-carboxylic acid] | – | 1460 nM
3 | – | 13.9% | CC(C)OC(=O)OC(C)OC(=O)[C@]1(Nc2cccc(Cl)c2)CC[C@@]2(CC1)c1cc3c(cc1C[C@@H]2C[C@@H](C)COc1ccnc2c1[C@H](C)CCC2)OCO3 (stereo partly drawn) [Example 944, 1-({[(propan-2-yl)oxy]carbonyl}oxy)ethyl (1r,4S,6′S)-4-(3-chloroanilino)-6′-[(2R)-2-methyl-3-{[(5R)-5-methyl-5,6,7,8-tetrahydroquinolin-4-yl]oxy}propyl]-6′,7′-dihydro-2′H-spiro[cyclohexane-1,5′-indeno[5,6-d][1,3]dioxole]-4-carboxylate] | – | 2130 nM
4 | 0.177 nM | – | C[C@@H](COc1ccnc2c1[C@H](C)CCC2)C[C@H]1Cc2cc(Cl)ccc2[C@]12CC[C@@](Nc1cccc(Cl)c1)(C(=O)O)CC2 [Example 778, (1r,2′S,4S)-5′-chloro-4-(3-chloroanilino)-2′-[(2R)-2-methyl-3-{[(5R)-5-methyl-5,6,7,8-tetrahydroquinolin-4-yl]oxy}propyl]-2′,3′-dihydrospiro[cyclohexane-1,1′-indene]-4-carboxylic acid] | – | 67.2 nM
5 | 0.0834 nM | – | C[C@@H](COc1ccnc2c1[C@H](C)CC[C@H]2C)C[C@H]1Cc2cc3c(cc2[C@]12CC[C@@](Nc1cccc(Cl)c1)(C(=O)O)CC2)OCO3 [Example 960, (1r,4S,6′S)-4-(3-chloroanilino)-6′-[(2R)-3-{[(5R,8R)-5,8-dimethyl-5,6,7,8-tetrahydroquinolin-4-yl]oxy}-2-methylpropyl]-6′,7′-dihydro-2′H-spiro[cyclohexane-1,5′-indeno[5,6-d][1,3]dioxole]-4-carboxylic acid] | – | 77.5 nM
6 | 0.00447 nM | – | C[C@@H](COc1ccnc2c1[C@H](C)CCC2)C[C@H]1Cc2cc3c(cc2[C@]12CC[C@@](Nc1cccc(Cl)c1)(C(=O)O)CC2)O[C@H](C)CCO3 [Example 987, (1r,4S,4′R,8′S)-4-(3-chloroanilino)-4′-methyl-8′-[(2R)-2-methyl-3-{[(5R)-5-methyl-5,6,7,8-tetrahydroquinolin-4-yl]oxy}propyl]-3′,4′,8′,9′-tetrahydro-2′H-spiro[cyclohexane-1,7′-indeno[5,6-b][1,4]dioxepine]-4-carboxylic acid] | – | 37.7 nM
7 | 0.518 nM | – | C[C@@H](COc1ccnc2c1[C@H](C)CCC2)C[C@H]1Cc2cc(F)c(F)cc2[C@]12CC[C@@](Nc1cccc(Cl)c1)(C(=O)O)CC2 [Example 775, (1r,2′S,4S)-4-(3-chloroanilino)-5′,6′-difluoro-2′-[(2R)-2-methyl-3-{[(5R)-5-methyl-5,6,7,8-tetrahydroquinolin-4-yl]oxy}propyl]-2′,3′-dihydrospiro[cyclohexane-1,1′-indene]-4-carboxylic acid] | – | 84.4 nM
8 | 0.282 nM | – | C[C@@H](COc1ccnc2c1[C@H](C)CCC2)C[C@H]1Cc2ccccc2[C@]12CC[C@@](Nc1cccc(Cl)c1)(C(=O)O)CC2 [Example 653, (1r,2′S,4S)-4-(3-chloroanilino)-2′-[(2R)-2-methyl-3-{[(5R)-5-methyl-5,6,7,8-tetrahydroquinolin-4-yl]oxy}propyl]-2′,3′-dihydrospiro[cyclohexane-1,1′-indene]-4-carboxylic acid] | – | 113 nM
9 | 0.254 nM | – | COc1ccc2c(c1)[C@]1(CC[C@@](Nc3cccc(Cl)c3)(C(=O)O)CC1)[C@H](C[C@@H](C)COc1ccnc3c1[C@H](C)CCC3)C2 [Example 782, (1r,2′R,4R)-4-(3-chloroanilino)-6′-methoxy-2′-[(2R)-2-methyl-3-{[(5R)-5-methyl-5,6,7,8-tetrahydroquinolin-4-yl]oxy}propyl]-2′,3′-dihydrospiro[cyclohexane-1,1′-indene]-4-carboxylic acid] | – | 235 nM
10 | 0.228 nM | – | C[C@@H](COc1ccnc2c1[C@H](C)CCC2)C[C@H]1Cc2cc3c(cc2[C@]12CC[C@@](Nc1cccc(Cl)c1)(C(=O)O)CC2)OC(F)(F)O3 [Example 849, (1r,4S,6′S)-4-(3-chloroanilino)-2′,2′-difluoro-6′-[(2R)-2-methyl-3-{[(5R)-5-methyl-5,6,7,8-tetrahydroquinolin-4-yl]oxy}propyl]-6′,7′-dihydro-2′H-spiro[cyclohexane-1,5′-indeno[5,6-d][1,3]dioxole]-4-carboxylic acid] | – | 90.5 nM
11 | 0.0442 nM | – | C[C@@H](COc1ccnc2c1[C@H](C)CCC2)C[C@H]1Cc2cc3c(cc2[C@]12CC[C@@](Nc1cccc(Cl)c1)(C(=O)O)CC2)OCC1(CC1)CO3 [Example 994, (1r,4S,8′S)-4-(3-chloroanilino)-8′-[(2R)-2-methyl-3-{[(5R)-5-methyl-5,6,7,8-tetrahydroquinolin-4-yl]oxy}propyl]-8′,9′-dihydro-2′H,4′H-dispiro[cyclohexane-1,7′-indeno[5,6-b][1,4]dioxepine-3′,1″-cyclopropane]-4-carboxylic acid] | – | 59.7 nM
12 | – | 4.5% | CCOC(=O)[C@]1(Nc2cccc(Cl)c2)CC[C@@]2(CC1)c1cc3c(cc1C[C@@H]2C[C@@H](C)COc1ccnc2c1[C@H](C)CCC2)OCO3 [Example 930, ethyl (1r,4S,6′S)-4-(3-chloroanilino)-6′-[(2R)-2-methyl-3-{[(5R)-5-methyl-5,6,7,8-tetrahydroquinolin-4-yl]oxy}propyl]-6′,7′-dihydro-2′H-spiro[cyclohexane-1,5′-indeno[5,6-d][1,3]dioxole]-4-carboxylate] | – | > 30000 nM
13 | 14 nM | – | CC1CCNc2nccc(OC[C@H](C)C[C@H]3Cc4ccccc4[C@]34CC[C@@](Nc3cccc(Cl)c3)(C(=O)O)CC4)c21 (single isomer, unassigned) [Example 641] | 3030 nM | –
14 | 0.585 nM | – | C[C@@H](COc1ccnc2c1[C@H](C)CCC2)C[C@H]1Cc2ccccc2[C@]12CC[C@@](Nc1ccc(F)c(Cl)c1F)(C(=O)O)CC2 [Example 707, (1r,2′S,4S)-4-(3-chloro-2,4-difluoroanilino)-2′-[(2R)-2-methyl-3-{[(5R)-5-methyl-5,6,7,8-tetrahydroquinolin-4-yl]oxy}propyl]-2′,3′-dihydrospiro[cyclohexane-1,1′-indene]-4-carboxylic acid] | – | 230 nM
15 | 0.386 nM | – | C[C@@H](COc1ccnc2c1[C@H](C)CCC2)C[C@H]1Cc2ccc(-c3ccsc3)cc2[C@]12CC[C@@](Nc1cccc(Cl)c1)(C(=O)O)CC2 [Example 878, (1r,2′S,4S)-4-(3-chloroanilino)-2′-[(2R)-2-methyl-3-{[(5R)-5-methyl-5,6,7,8-tetrahydroquinolin-4-yl]oxy}propyl]-6′-(thiophen-3-yl)-2′,3′-dihydrospiro[cyclohexane-1,1′-indene]-4-carboxylic acid] | – | 1110 nM
16 | 1 nM | – | COC(=O)OC(C)OC(=O)[C@]1(Nc2cccc(Cl)c2)CC[C@@]2(CC1)c1cc3c(cc1C[C@@H]2C[C@@H](C)COc1ccnc2c1[C@H](C)CCC2)OCO3 (stereo partly drawn) [Example 943, 1-[(methoxycarbonyl)oxy]ethyl (1r,4S,6′S)-4-(3-chloroanilino)-6′-[(2R)-2-methyl-3-{[(5R)-5-methyl-5,6,7,8-tetrahydroquinolin-4-yl]oxy}propyl]-6′,7′-dihydro-2′H-spiro[cyclohexane-1,5′-indeno[5,6-d][1,3]dioxole]-4-carboxylate] | – | 228 nM
17 | 0.0843 nM | – | COC[C@@H]1C[C@H]1c1ccc2c(c1)[C@]1(CC[C@@](Nc3cccc(Cl)c3)(C(=O)O)CC1)[C@@H](C[C@@H](C)COc1ccnc3c1[C@H](C)CCC3)C2 [Example 875, (1r,2′S,4S)-4-(3-chloroanilino)-6′-[(1R,2R)-2-(methoxymethyl)cyclopropyl]-2′-[(2R)-2-methyl-3-{[(5R)-5-methyl-5,6,7,8-tetrahydroquinolin-4-yl]oxy}propyl]-2′,3′-dihydrospiro[cyclohexane-1,1′-indene]-4-carboxylic acid] | – | 59.7 nM
18 | 2.01 nM | – | C[C@@H](COc1ccnc2c1[C@H](C)CCC2)C[C@H]1Cc2ccccc2[C@]12CC[C@@](Nc1ccc(Cl)c(Cl)c1)(C(=O)O)CC2 [Example 715, (1r,2′S,4S)-4-(3,4-dichloroanilino)-2′-[(2R)-2-methyl-3-{[(5R)-5-methyl-5,6,7,8-tetrahydroquinolin-4-yl]oxy}propyl]-2′,3′-dihydrospiro[cyclohexane-1,1′-indene]-4-carboxylic acid] | – | 1290 nM
19 | 6.24 nM | – | C[C@@H](COc1ccnc2c1[C@H](C)CCC2)C[C@H]1Cc2cc3c(cc2[C@]12CC[C@@](Nc1cccc(Cl)c1)(C(=O)NS(C)(=O)=O)CC2)OCO3 [Example 957, (1r,4S,6′S)-4-(3-chloroanilino)-N-(methanesulfonyl)-6′-[(2R)-2-methyl-3-{[(5R)-5-methyl-5,6,7,8-tetrahydroquinolin-4-yl]oxy}propyl]-6′,7′-dihydro-2′H-spiro[cyclohexane-1,5′-indeno[5,6-d][1,3]dioxole]-4-carboxamide] | – | 4700 nM
